Results on one molecule are retold here after article PMC11887051, “Discovery of ONO-2920632 (VU6011887): A Highly Selective and CNS Penetrant TREK-2 (TWIK-Related K+ Channel 2) Preferring Activator In Vivo Tool Compound” (ACS Chemical Neuroscience, 2025).

Entries after “also recorded” stand apart in the source; their conditions may differ. Like-named read-outs stand apart in the source and are kept apart here.

Data set [1] can be described thus: mouse PO PK study (C57BL/6). Format: in vivo. The settings on record: 3 mg/kg PO; for concentration at 2 h: C57BL/6, mouse, po. The procedure: Plasma and brain tissue samples originating from in vivo studies were analyzed by electrospray ionization using an AB Sciex Q-TRAP 5500 (Foster City, CA) that was coupled to a Shimadzu LC-20AD pump (Columbia, MD) and a Leap Technologies CTC PAL auto-sampler (Carrboro, NC). Analytes were separated by gradient elution using a C18 column (3 x 50 mm, 3 mm; Fortis Technologies Ltd, Cheshire, UK) that was thermostated at 40 °C. HPLC mobile phase A was 0.1% formic acid in water (pH unadjusted); mobile phase B was 0.1% formic acid in acetonitrile (pH […]
min, with an isocratic hold for 0.5 min, before transitioning to 10% B over 0.05 min. The column was re-equilibrated (1 min) before the next sample injection. The total run time was 2.55 min, and the HPLC flow rate was 0.5 ml/min. The source temperature was set at 500 °C, and mass spectral analyses were performed using a Turbo-Ion spray source in positive ionization mode (5.0-kV spray voltage) and using multiple-reaction monitoring of transitions specific for the analytes. All data were analyzed using AB Sciex Analyst 1.5.1 software.
Brain plasma concentration ratio (Kp) was calculated by dividing brain concentration by plasma concentration for each animal. Unbound brain to unbound plasma concentration ratio (Kp,uu) is calculated using the following formula: Kp,uu = (Brain ng/g x brain fu)/(plasma ng/ml x plasma fu).
For determination of the plasma concentration-time profile, compounds were formulated in methyl cellulose and administered as a 3 mg/kg PO dose to male C57BL/6 mouse or SD rat (n = 2). For the same determination, compounds were formulated in HP-β-CD and administered as a 0.1 mg/kg IV dose to male beagle dog (n = 2).
Plasma samples originating from in vivo studies were analyzed by electrospray ionization using a Q-TRAP 5500 (AB Sciex) that was coupled to a Prominence UFLC XR (Shimadzu Corporation).
Analytes were separated by gradient elution using a Shim-pack XR-ODS II (2 x 75 mm, 2.2μm, Shimadzu Corporation) that was thermostated at 40 °C. HPLC mobile phase A was 5 mM ammonium acetate containing 0.2% formic acid in water (pH unadjusted); mobile phase B was […]
hold for 1.5 min, before transitioning to 10% B over 0.1 min. The column was re-equilibrated (0.9 min) before the next sample injection. The total run time was 4.0 min, and the HPLC flow rate was 0.5 ml/min. The source temperature was set at 600 °C, and mass spectral analyses were performed using a Turbo-Ion spray source in positive ionization mode and using multiple-reaction

The target in a further data set is T1, TREK-1 (Homo sapiens, UniProt O95069).
T1 sequence (O95069 1-426): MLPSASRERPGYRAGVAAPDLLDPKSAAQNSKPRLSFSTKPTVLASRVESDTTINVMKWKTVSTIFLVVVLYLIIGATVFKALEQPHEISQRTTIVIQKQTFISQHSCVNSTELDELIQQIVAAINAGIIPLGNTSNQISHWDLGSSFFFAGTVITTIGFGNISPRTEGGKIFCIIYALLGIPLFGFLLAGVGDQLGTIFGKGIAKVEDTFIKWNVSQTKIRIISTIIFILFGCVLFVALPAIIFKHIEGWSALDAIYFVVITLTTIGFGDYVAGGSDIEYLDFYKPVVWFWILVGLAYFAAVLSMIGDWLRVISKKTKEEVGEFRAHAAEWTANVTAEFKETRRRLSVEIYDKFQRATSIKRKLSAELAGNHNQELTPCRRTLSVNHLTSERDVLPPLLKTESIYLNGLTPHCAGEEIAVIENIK
The experiment in a line: human 86Rb flux K2P selectivity panel. The settings on record: data is not shown. The class given is cell-based.

In a further data set the test system is ICR male mice. Kind of data set: acetic acid writhing assay. Format: in vivo. The conditions noted are these: mouse, 0.3, 1, 3 mg/kg PO, 2 h before acetic acid IP, writhes counted 30 min. The method, then: To initially explore the role of TREK-2 activation in analgesia, we evaluated 19b in the acetic acid writhing assay. Injection of acetic acid activates nociceptors directly and/or produces inflamed viscera (subdiaphragmatic organs) and subcutaneous (muscle wall) tissues. The number of writhes (characterized by contraction of the abdominal musculature and extension of the limbs) was then counted for 30 min. Analgesic effect was determined by comparing the number of writhes between in the presence of 19b or vehicle. […] At the 3 mg/kg PO dose of 19b, total brain levels are ∼3 μM and free brain in 0.92 μM and CSF levels in 0.22 μM, providing a good PK/PD relationship and supporting the data generated with the TREK activator 3.
Figure 4 Analgesic effect in acetic acid writhing assay. ICR male mice (6 weeks of age) were pretreated with vehicle (0.5 w/v% Methyl Cellulose in distilled water, PO) or 19b (= ONO-2920632) (0.3, 1, 3 mg/kg, PO) or Indomethacin (10 mg/kg, PO). […] The number of writhes (characterized by contraction of the abdominal musculature and extension of the limbs) was then counted for 30 min. Analgesic effect was determined by comparing the number of writhes between in the presence of compound and in the presence of vehicle (*; p < 0.05 by Student’s t test, #; p < 0.05 by Williams test).
On the technique in general: Writhing tests count abdominal constrictions after an irritant is injected.

The next data set deals with Adenosine A2A (Homo sapiens, UniProt P29274). The experiment in a line: Eurofins Lead Profiling radioligand binding. The conditions noted are these: title: 30 μM.
Sequence of Adenosine A2A (P29274 whole entry): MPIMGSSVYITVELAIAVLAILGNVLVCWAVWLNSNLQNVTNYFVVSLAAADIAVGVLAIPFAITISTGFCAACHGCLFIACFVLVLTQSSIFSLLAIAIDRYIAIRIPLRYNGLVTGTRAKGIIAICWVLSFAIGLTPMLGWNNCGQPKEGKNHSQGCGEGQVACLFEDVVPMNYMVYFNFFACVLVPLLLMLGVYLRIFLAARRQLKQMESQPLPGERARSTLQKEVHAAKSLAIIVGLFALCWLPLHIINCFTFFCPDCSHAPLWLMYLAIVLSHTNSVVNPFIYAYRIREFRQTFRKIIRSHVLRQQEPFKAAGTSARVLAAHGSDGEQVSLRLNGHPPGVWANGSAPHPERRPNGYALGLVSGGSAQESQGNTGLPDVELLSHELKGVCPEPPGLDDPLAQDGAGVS
Another data set has as its target Androgen (Testosterone) (Homo sapiens, UniProt P10275). The experiment in a line: Eurofins Lead Profiling radioligand binding. The conditions noted are these: title: 30 μM.
Another data set has as its target Calcium Channel N-Type (Rattus norvegicus, UniProt Q02294). The experiment in a line: Eurofins Lead Profiling radioligand binding. The settings on record: title: 30 μM.
In the next data set the target is Dopamine D1 (Homo sapiens, UniProt P21728). The experiment in a line: Eurofins Lead Profiling radioligand binding. The settings on record: title: 30 μM.
Sequence of Dopamine D1 (P21728 whole entry): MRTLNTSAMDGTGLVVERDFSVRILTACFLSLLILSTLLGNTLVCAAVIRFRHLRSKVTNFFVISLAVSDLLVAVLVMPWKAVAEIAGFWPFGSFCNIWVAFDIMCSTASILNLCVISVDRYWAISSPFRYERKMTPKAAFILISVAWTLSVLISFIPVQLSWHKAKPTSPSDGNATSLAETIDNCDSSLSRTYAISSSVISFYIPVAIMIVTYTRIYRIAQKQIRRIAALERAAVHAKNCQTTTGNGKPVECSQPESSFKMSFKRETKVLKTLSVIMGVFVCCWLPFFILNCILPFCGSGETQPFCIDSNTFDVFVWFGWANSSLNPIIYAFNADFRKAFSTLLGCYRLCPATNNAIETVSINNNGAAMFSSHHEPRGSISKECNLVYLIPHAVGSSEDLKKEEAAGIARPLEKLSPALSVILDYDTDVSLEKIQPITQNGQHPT
The next data set addresses Dopamine D3 (Homo sapiens, UniProt P35462). The experiment in a line: Eurofins Lead Profiling radioligand binding. The settings on record: title: 30 μM.
A further data set concerns the target GABAB1A (Homo sapiens, UniProt Q9UBS5). Kind of data set: Eurofins Lead Profiling radioligand binding. The conditions noted are these: title: 30 μM.
The target of a further data set is Neuropeptide Y Y1 (Homo sapiens, UniProt P25929). Kind of data set: Eurofins Lead Profiling radioligand binding. The conditions noted are these: title: 30 μM.
Sequence of Neuropeptide Y Y1 (P25929 whole entry): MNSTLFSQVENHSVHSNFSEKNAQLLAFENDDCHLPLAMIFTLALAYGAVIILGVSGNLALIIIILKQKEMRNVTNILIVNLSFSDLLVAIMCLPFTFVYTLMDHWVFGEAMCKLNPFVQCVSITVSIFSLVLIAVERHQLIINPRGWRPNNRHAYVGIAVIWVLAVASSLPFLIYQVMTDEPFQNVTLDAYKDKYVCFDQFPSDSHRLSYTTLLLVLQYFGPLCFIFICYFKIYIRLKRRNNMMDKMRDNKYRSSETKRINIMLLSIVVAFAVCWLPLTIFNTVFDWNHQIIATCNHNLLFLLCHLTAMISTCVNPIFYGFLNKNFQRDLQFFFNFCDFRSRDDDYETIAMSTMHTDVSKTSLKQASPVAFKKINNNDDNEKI
The next data set addresses Serotonin (5-HT2B) (Homo sapiens, UniProt P41595). Kind of data set: Eurofins Lead Profiling radioligand binding. The conditions noted are these: title: 30 μM.
For the next data set, the system named is Sodium Channel, Site 2. Kind of data set: Eurofins Lead Profiling radioligand binding. On the set-up: species or system Rat. The conditions noted are these: title: 30 μM.
In the next data set the test system is Thyroid Hormone. Kind of data set: Eurofins Lead Profiling radioligand binding. The settings on record: title: 30 μM. On the set-up: species or system Rat.

As a reminder, the Cmax is the maximum level reached in the sampled fluid or tissue. As usually defined, the Tmax is the time at which the peak concentration occurs. The term half-life denotes how long it takes for the measured level to halve. Low readings indicate fast loss, high ones slow loss. As usually defined, the inhibition is the drop in the measured response relative to a control, in per cent. In general, % Inhibition refers to how much of the control response was suppressed.

Sequence of Androgen (Testosterone) (P10275 whole entry): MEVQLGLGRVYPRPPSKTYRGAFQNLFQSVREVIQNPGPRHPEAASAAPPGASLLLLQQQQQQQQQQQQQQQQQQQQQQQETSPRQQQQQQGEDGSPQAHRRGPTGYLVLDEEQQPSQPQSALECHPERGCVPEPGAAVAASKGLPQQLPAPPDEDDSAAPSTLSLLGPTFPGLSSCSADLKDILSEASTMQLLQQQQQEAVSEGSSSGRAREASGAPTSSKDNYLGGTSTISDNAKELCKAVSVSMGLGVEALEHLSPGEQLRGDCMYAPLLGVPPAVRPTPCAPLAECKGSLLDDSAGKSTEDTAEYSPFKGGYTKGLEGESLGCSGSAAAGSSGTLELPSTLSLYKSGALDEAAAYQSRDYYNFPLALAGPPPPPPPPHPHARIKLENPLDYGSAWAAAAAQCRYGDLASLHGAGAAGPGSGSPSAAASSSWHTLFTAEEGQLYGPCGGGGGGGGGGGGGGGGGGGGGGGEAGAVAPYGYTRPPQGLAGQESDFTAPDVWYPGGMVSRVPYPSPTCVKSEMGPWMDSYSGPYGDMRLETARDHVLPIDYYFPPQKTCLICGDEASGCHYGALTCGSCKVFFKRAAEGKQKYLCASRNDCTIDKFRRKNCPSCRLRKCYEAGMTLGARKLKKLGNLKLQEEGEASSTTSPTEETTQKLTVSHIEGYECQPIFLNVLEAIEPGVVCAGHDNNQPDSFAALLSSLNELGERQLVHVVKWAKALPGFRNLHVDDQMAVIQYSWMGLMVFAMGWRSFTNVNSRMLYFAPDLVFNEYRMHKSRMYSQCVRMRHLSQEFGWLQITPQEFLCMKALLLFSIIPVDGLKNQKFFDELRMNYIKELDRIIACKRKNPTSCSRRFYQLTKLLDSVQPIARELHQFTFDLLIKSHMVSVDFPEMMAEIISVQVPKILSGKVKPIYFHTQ
Sequence of Dopamine D3 (P35462 whole entry): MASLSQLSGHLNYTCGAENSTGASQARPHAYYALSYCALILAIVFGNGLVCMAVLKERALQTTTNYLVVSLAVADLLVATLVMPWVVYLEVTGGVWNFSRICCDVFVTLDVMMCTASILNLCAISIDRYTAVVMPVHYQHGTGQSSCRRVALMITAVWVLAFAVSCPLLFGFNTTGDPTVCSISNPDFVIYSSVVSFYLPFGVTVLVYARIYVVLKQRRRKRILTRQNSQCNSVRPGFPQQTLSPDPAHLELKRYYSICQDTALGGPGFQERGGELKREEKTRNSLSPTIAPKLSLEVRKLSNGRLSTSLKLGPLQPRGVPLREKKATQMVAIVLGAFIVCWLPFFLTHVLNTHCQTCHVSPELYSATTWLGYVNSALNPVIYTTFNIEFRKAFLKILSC
Sequence of GABAB1A (Q9UBS5 15-961 limits assumed): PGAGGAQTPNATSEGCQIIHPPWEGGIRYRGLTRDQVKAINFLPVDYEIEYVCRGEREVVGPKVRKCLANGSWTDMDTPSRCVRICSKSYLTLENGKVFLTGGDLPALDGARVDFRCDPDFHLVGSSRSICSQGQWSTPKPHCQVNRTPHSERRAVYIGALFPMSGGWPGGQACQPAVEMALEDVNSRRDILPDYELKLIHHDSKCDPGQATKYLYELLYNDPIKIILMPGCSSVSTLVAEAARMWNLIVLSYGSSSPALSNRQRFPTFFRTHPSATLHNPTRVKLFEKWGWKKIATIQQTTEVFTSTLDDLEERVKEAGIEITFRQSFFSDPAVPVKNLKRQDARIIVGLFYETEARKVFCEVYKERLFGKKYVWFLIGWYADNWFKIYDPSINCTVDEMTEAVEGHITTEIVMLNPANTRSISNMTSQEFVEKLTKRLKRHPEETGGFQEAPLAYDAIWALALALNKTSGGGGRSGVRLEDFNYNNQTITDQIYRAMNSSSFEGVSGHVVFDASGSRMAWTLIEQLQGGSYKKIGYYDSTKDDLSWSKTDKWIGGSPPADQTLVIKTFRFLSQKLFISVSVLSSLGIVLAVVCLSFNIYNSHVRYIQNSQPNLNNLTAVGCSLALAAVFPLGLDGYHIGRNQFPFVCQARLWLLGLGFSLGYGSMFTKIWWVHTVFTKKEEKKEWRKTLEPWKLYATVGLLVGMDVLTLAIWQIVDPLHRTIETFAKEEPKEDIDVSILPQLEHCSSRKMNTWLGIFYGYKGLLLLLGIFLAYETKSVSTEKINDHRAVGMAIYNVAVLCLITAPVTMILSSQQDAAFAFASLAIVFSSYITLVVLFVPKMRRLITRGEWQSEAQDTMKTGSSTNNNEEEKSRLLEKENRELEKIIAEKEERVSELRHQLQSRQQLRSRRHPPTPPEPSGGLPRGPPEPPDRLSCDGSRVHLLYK
Sequence of Serotonin (5-HT2B) (P41595 whole entry): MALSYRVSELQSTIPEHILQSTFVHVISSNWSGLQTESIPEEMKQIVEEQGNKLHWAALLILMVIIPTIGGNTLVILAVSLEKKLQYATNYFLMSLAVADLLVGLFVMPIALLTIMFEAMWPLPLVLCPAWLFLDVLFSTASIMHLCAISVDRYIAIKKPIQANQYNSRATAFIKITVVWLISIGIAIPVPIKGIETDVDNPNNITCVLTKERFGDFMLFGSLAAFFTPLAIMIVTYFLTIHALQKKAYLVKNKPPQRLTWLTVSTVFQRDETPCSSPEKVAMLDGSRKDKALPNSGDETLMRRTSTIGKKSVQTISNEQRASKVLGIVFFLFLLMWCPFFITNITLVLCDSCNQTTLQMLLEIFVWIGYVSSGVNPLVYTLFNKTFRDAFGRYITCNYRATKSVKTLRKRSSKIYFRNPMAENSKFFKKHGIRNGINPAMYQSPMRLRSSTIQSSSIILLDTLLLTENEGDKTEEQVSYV

For `O=C(NCc1ccc(OC(F)(F)F)cc1F)c1ccc2ncnn2c1` [Compound 19b], the total brain concentration in data set [1] (2 h, 3 mg/kg) was approximately 3 µM. Further, the concentration at 2 h amounted to 220 nM in data set [1] (male, CSF, 3 mg/kg, 2 h, read-out: CSF level); 920 nM in [1] (male, brain, 3 mg/kg, 2 h, read-out: free brain level); 3200 nM in data set [1] (male, brain, 3 mg/kg, 2 h, read-out: total brain concentration). For the same molecule, the Cmax in data set [1] (male, plasma, C57BL/6 mice) amounted to 10500 nM. Further, the Tmax in data set [1] (male, plasma, C57BL/6 mice) came out at 3.8 h. This molecule gave a half-life in data set [1] (male, plasma, C57BL/6 mice) of 19 h. The “activity at TREK-1 in 86Rb flux panel” value at TREK-1 is on record as “micromolar activity”. Moreover, the “analgesic effect (number of writhes)” value in the data set on ICR male mice is recorded as “dose-dependently reduces the number of writhes; also recorded: analgesic efficacy at 3 mg/kg PO of comparable magnitude to the positive control indomethacin”; with ICR male mice (listed as ONO-2920632), “robust, dose dependent efficacy”. The inhibition on Adenosine A2A is 10%; at Androgen (Testosterone), 18%; on Calcium Channel N-Type it was -1%; at Dopamine D1, 22%; on Dopamine D3 it was 13%; on GABAB1A it was -1%. Further, the inhibition stood at 2% on Neuropeptide Y Y1 and 14% at Serotonin (5-HT2B). The “% Inhibition at 10 µM” value with Sodium Channel, Site 2 came out at 15%; in the data set with Thyroid Hormone it was 9%.
